In US10570122B2, “Compounds with anti-tumoral activity” (AB Science, priority 2015, dated 2020):
pIC50: −log10 of the molar value.

Key:
HL60 = assay: CellTiter-Blue cell-based survival/proliferation assay, HL60; details: Homo sapiens, HL-60, Leukemia cell line HL60, 48 h, read-out: Anti-tumoral activity (measured IC50) HL60
Procedure: (§1) Cell-Based Proliferation Screening of Compounds
(§2) CellTiter-Blue cell-based survival/proliferation assay (Promega G8080) was performed on tumor cell lines. A total of 1·10^4 cells/well/50 μl were seeded in a 96-wells plate. Treatment was initiated by addition of a 2× drug solution of 1/10 serial dilutions ranging from 0 to 10 μM. Cells were grown for 48 h at 37° C. and then incubated with 10 μl/well of Promega CellTiter-Bleue reagent for 4 h at 37° C. The amount of resorufin dye formed was quantified by its fluorescence emission at 590 nm using a scanning multiwell spectrophotometer (OPTIMA, BMG labtech, France). A blank well without cells was used as a background control for the spectrophotometer.

HUT78 = assay: CellTiter-Blue cell-based survival/proliferation assay, HUT78; details: Homo sapiens, Lymphoma cell line HUT78, 48 h, read-out: Anti-tumoral activity (measured IC50) HUT78
Procedure: as §1, §2

KARPAS299 = assay: CellTiter-Blue cell-based survival/proliferation assay, KARPAS299; details: Homo sapiens, KARPAS-299, Lymphoma cell line KARPAS299, 48 h, read-out: Anti-tumoral activity (measured IC50) KARPAS299
Procedure: as §1, §2

REC1 = assay: CellTiter-Blue cell-based survival/proliferation assay, REC1; details: Homo sapiens, Lymphoma cell line REC1, 48 h, read-out: Anti-tumoral activity (measured IC50) REC1
Procedure: as §1, §2

OPM2 = assay: CellTiter-Blue cell-based survival/proliferation assay, OPM2; details: Homo sapiens, OPM-2, Myeloma cell line OPM2, 48 h, read-out: Anti-tumoral activity (measured IC50) OPM2
Procedure: as §1, §2

A498 = assay: CellTiter-Blue cell-based survival/proliferation assay, A498; details: Homo sapiens; A498 kidney tumor cell line, 48 h
Procedure: as §1, §2

A549 = assay: CellTiter-Blue cell-based survival/proliferation assay, A549; details: Homo sapiens; A549 lung tumor cell line, 48 h
Procedure: as §1, §2

ACHN = assay: CellTiter-Blue cell-based survival/proliferation assay, ACHN; details: Homo sapiens; ACHN kidney tumor cell line, 48 h
Procedure: as §1, §2

AGS = assay: CellTiter-Blue cell-based survival/proliferation assay, AGS; details: Homo sapiens; AGS stomach tumor cell line, 48 h
Procedure: as §1, §2

BT20 = assay: CellTiter-Blue cell-based survival/proliferation assay, BT20; details: Homo sapiens, BT-20; BT20 breast tumor cell line, 48 h
Procedure: as §1, §2

BXPC3 = assay: CellTiter-Blue cell-based survival/proliferation assay, BXPC3; details: Homo sapiens, BXPC-3; BXPC3 pancreas tumor cell line, 48 h
Procedure: as §1, §2

CALU6 = assay: CellTiter-Blue cell-based survival/proliferation assay, CALU6; details: Homo sapiens, Calu-6; CALU6 lung tumor cell line, 48 h
Procedure: as §1, §2

CLS354 = assay: CellTiter-Blue cell-based survival/proliferation assay, CLS354; details: Homo sapiens, CLS-354; CLS354_4 head & neck tumor cell line, 48 h
Procedure: as §1, §2

DLD1 = assay: CellTiter-Blue cell-based survival/proliferation assay, DLD1; details: Homo sapiens, DLD-1; DLD_1 colorectal tumor cell line, 48 h
Procedure: as §1, §2

DU145 = assay: CellTiter-Blue cell-based survival/proliferation assay, DU145; details: Homo sapiens, DU-145; DU145 prostate tumor cell line, 48 h
Procedure: as §1, §2

H1299 = assay: CellTiter-Blue cell-based survival/proliferation assay, H1299; details: Homo sapiens, NCI-H1299; H1299 lung tumor cell line, 48 h
Procedure: as §1, §2

HCT116 = assay: CellTiter-Blue cell-based survival/proliferation assay, HCT116; details: Homo sapiens, HCT-116; HCT116 colorectal tumor cell line, 48 h
Procedure: as §1, §2

HEP2 = assay: CellTiter-Blue cell-based survival/proliferation assay, HEP2; details: Homo sapiens, HEp-2; HEP2 head & neck tumor cell line, 48 h
Procedure: as §1, §2

HEPG2 = assay: CellTiter-Blue cell-based survival/proliferation assay, HEPG2; details: Homo sapiens; HEPG2 liver tumor cell line, 48 h
Procedure: as §1, §2

HGC27 = assay: CellTiter-Blue cell-based survival/proliferation assay, HGC27; details: Homo sapiens, HGC-27; HGC27 stomach tumor cell line, 48 h
Procedure: as §1, §2

MDAMB231 = assay: CellTiter-Blue cell-based survival/proliferation assay, MDAMB231; details: Homo sapiens, MDA-MB-231; MDAMB231 breast tumor cell line, 48 h
Procedure: as §1, §2

MESSA = assay: CellTiter-Blue cell-based survival/proliferation assay, MESSA; details: Homo sapiens, MES-SA; MESSA ovary tumor cell line, 48 h
Procedure: as §1, §2

PANC1 = assay: CellTiter-Blue cell-based survival/proliferation assay, PANC1; details: Homo sapiens, PANC-1; PANC_1 pancreas tumor cell line, 48 h
Procedure: as §1, §2

PC3 = assay: CellTiter-Blue cell-based survival/proliferation assay, PC3; details: Homo sapiens, PC-3; PC3 prostate tumor cell line, 48 h
Procedure: as §1, §2

PLCPRF5 = assay: CellTiter-Blue cell-based survival/proliferation assay, PLCPRF5; details: Homo sapiens, PLC-PRF-5; PLC_PRF5 liver tumor cell line, 48 h
Procedure: as §1, §2

SW579 = assay: CellTiter-Blue cell-based survival/proliferation assay, SW579; details: Homo sapiens; SW579 head & neck tumor cell line, 48 h
Procedure: as §1, §2

TOV112D = assay: CellTiter-Blue cell-based survival/proliferation assay, TOV112D; details: Homo sapiens; TOV112D ovary tumor cell line, 48 h
Procedure: as §1, §2

[1] = tested on: panel of about 34 human tumor cell lines; assay: Cell-based proliferation screening on panel of tumor cell lines; details: solid tumor cell line, cell line unknown, 48 h, read-out: IC50, solid tumor cell line of column 6 (last section of Table 3)
Procedure: Compounds of formula (I) were tested against a panel of about 34 human tumor cell lines representing 17 cancer type, namely leukemia (represented by 1 cell line), lymphoma (4 cell lines), myeloma (1 cell line), colorectal (2 cell lines), head and neck (3 cell lines), lung (3 cell lines), melanoma (2 cell lines), pancreas (2 cell lines), prostate (2 cell lines), ovary (2 cell lines) breast (2 cell lines), kidney (2 cell lines), stomach (2 cell lines), liver (2 cell lines), glioblastoma (2 cell lines), osteosarcoma (1 cell line), Ewing Sarcoma (1 cell line).
as §1, §2

Row | Compound | pIC50 (HL60) | pIC50 (OPM2) | pIC50 (A498) | pIC50 (A549) | pIC50 (ACHN) | pIC50 (AGS) | pIC50 (BT20) | pIC50 (BXPC3) | pIC50 (CALU6) | pIC50 (CLS354) | pIC50 (DLD1) | pIC50 (DU145) | pIC50 (H1299) | pIC50 (HCT116) | pIC50 (HEP2) | pIC50 (HEPG2) | pIC50 (HGC27) | pIC50 (MDAMB231) | pIC50 (MESSA) | pIC50 (PANC1) | other results
1 | CCOCc1cccc(Nc2ncc(-c3ccc(-n4cccn4)cc3)o2)c1 [Example 020, (3-Ethoxymethyl-phenyl)-[5-(4-pyrazol-1-yl-phenyl)-oxazol-2-yl]-amine] | ≥ 7.00 | ≥ 7.00 | < 6.00 | < 6.00 | < 6.00 | < 6.00 | < 6.00 | 6.00 to 6.30 | < 6.00 | ≥ 7.00 | 6.30 to 7.00 | < 6.00 | < 6.00 | < 6.00 | < 6.00 | < 6.00 | < 6.00 | 6.30 to 7.00 | < 6.00 | < 6.00 | pIC50 (HUT78): ≥ 7.00; pIC50 (KARPAS299): ≥ 7.00; pIC50 (REC1): ≥ 7.00; pIC50 (PC3): ≥ 7.00; pIC50 (PLCPRF5): < 6.00; pIC50 (SW579): < 6.00; pIC50 (TOV112D): < 6.00; pIC50 [1]: ≥ 7.00
2 | CCOCc1cc(C)cc(Nc2ncc(-c3ccc(-n4cccn4)cc3)o2)c1 [Example 021, (3-Ethoxymethyl-5-methyl-phenyl)-[5-(4-pyrazol-1-yl-phenyl)-oxazol-2-yl]-amine] | 6.30 to 7.00 | 6.30 to 7.00 | < 6.00 | < 6.00 | < 6.00 | < 6.00 | < 6.00 | < 6.00 | < 6.00 | 6.30 to 7.00 | 6.00 to 6.30 | < 6.00 | < 6.00 | < 6.00 | < 6.00 | < 6.00 | < 6.00 | < 6.00 | < 6.00 | < 6.00 | pIC50 (HUT78): 6.00 to 6.30; pIC50 (KARPAS299): 6.30 to 7.00; pIC50 (REC1): 6.30 to 7.00; pIC50 (PC3): 6.00 to 6.30; pIC50 (PLCPRF5): < 6.00; pIC50 (SW579): < 6.00; pIC50 (TOV112D): < 6.00; pIC50 [1]: 6.30 to 7.00
3 | CCOCc1ccc(C)c(Nc2ncc(-c3ccc(-c4ccn[nH]4)cc3)o2)c1 [Example 057, 5-(4-(1H-pyrazol-5-yl)phenyl)-N-(5-(ethoxymethyl)-2-methylphenyl)oxazol-2-amine] | 6.30 to 7.00 | 6.30 to 7.00 | < 6.00 | < 6.00 | < 6.00 | < 6.00 | < 6.00 | < 6.00 | < 6.00 | 6.30 to 7.00 | < 6.00 | < 6.00 | < 6.00 | < 6.00 | 6.00 to 6.30 | < 6.00 | < 6.00 | < 6.00 | < 6.00 | < 6.00 | pIC50 (PC3): 6.00 to 6.30; pIC50 (PLCPRF5): < 6.00; pIC50 (SW579): < 6.00; pIC50 (TOV112D): ≥ 7.00; pIC50 [1]: 6.00 to 6.30
4 | CCOCc1ccc(C)c(Nc2ncc(-c3ccc(N4C(=O)NC[C@H]4C)nc3)o2)c1 [Example 058, (R)-1-(5-(2-((5-(ethoxymethyl)-2-methylphenyl)amino)oxazol-5-yl)pyridin-2-yl)-5-methylimidazolidin-2-one] | ≥ 7.00 | ≥ 7.00 | < 6.00 | < 6.00 | < 6.00 | < 6.00 | < 6.00 | < 6.00 | < 6.00 | ≥ 7.00 | < 6.00 | < 6.00 | < 6.00 | < 6.00 | 6.30 to 7.00 | < 6.00 | < 6.00 | < 6.00 | < 6.00 | < 6.00 | pIC50 (PC3): ≥ 7.00; pIC50 (PLCPRF5): < 6.00; pIC50 (SW579): < 6.00; pIC50 (TOV112D): ≥ 7.00; pIC50 [1]: 6.30 to 7.00
5 | CCOCc1cc(Nc2ncc(-c3ccc(N4CCNC4=O)cc3)o2)cc(OCCO)c1 [Example 059, 1-(4-(2-((3-(ethoxymethyl)-5-(2-hydroxyethoxy)phenyl)amino)oxazol-5-yl)phenyl)imidazolidin-2-one] | ≥ 7.00 | ≥ 7.00 | < 6.00 | < 6.00 | < 6.00 | < 6.00 | < 6.00 | 6.00 to 6.30 | < 6.00 | ≥ 7.00 | < 6.00 | < 6.00 | < 6.00 | ≥ 7.00 | ≥ 7.00 | < 6.00 | < 6.00 | < 6.00 | < 6.00 | < 6.00 | pIC50 (PC3): ≥ 7.00; pIC50 (PLCPRF5): < 6.00; pIC50 (SW579): ≥ 7.00; pIC50 (TOV112D): ≥ 7.00; pIC50 [1]: ≥ 7.00
6 | CCOCc1ccc(C)c(Nc2ncc(-c3ccc(-c4cn[nH]c4)cc3)o2)c1 [Example 060, 5-(4-(1H-pyrazol-4-yl)phenyl)-N-(5-(ethoxymethyl)-2-methylphenyl)oxazol-2-amine] | 6.00 to 6.30 | 6.00 to 6.30 | < 6.00 | < 6.00 | < 6.00 | < 6.00 | < 6.00 | < 6.00 | < 6.00 | < 6.00 | < 6.00 | < 6.00 | < 6.00 | < 6.00 | < 6.00 | < 6.00 | < 6.00 | < 6.00 | < 6.00 | < 6.00 | pIC50 (PC3): < 6.00; pIC50 (PLCPRF5): < 6.00; pIC50 (SW579): < 6.00; pIC50 (TOV112D): < 6.00; pIC50 [1]: < 6.00
7 | CCOCc1ccc(C)c(Nc2ncc(-c3ccc(-c4ccnn4C)cc3)o2)c1 [Example 061, N-(5-(ethoxymethyl)-2-methylphenyl)-5-(4-(1-methyl-1H-pyrazol-5-yl)phenyl)oxazol-2-amine] | < 6.00 | < 6.00 | < 6.00 | < 6.00 | < 6.00 | < 6.00 | < 6.00 | < 6.00 | < 6.00 | < 6.00 | < 6.00 | < 6.00 | < 6.00 | < 6.00 | < 6.00 | < 6.00 | < 6.00 | < 6.00 | < 6.00 | < 6.00 | pIC50 (PC3): < 6.00; pIC50 (PLCPRF5): < 6.00; pIC50 (SW579): < 6.00; pIC50 (TOV112D): < 6.00; pIC50 [1]: < 6.00
